Reference: the supplement of paper PMC10307832

How the values were obtained:
Assay in all cases: relative viability (nuclei count vs DMSO), 5 days (fraction); higher = more cells survive
[1] = compound: COCC[n+]1c2c(n(Cc3cnccn3)c1C)C(=O)c1ccccc1C2=O [YM155] + COc1cc2c(Oc3ccc(NC(=O)C4(C(=O)Nc5ccc(F)cc5)CC4)cc3F)ccnc2cc1OCCCN1CCOCC1 [Foretinib] (partner 0.25 µM)
Summary of the method: (§1)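 One day after seeding in 1536-well plates, lung cancer cell lines were dosed by pin tool. Dosing was either single-drug or a fixed anchor-drug dose plus five library-drug doses (not always all listed) in √10 steps. After 5 days, nuclei were stained in one fix-and-stain step and counted on 4× images, and relative viability is the nuclei count of treated wells over that of vehicle wells, given as the median of duplicate plates.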

[2] = compound: CC(C)(C)c1cc(NC(=O)Nc2ccc(-c3cn4c(n3)sc3cc(OCCN5CCOCC5)ccc34)cc2)no1 [Quizartinib] + Cc1cc(Nc2cc(N3CCN(C)CC3)nc(Sc3ccc(NC(=O)C4CC4)cc3)n2)n[nH]1 [Tozasertib] (partner 0.1 µM)
Summary of the method: as §1

[3] = compound: COCC[n+]1c2c(n(Cc3cnccn3)c1C)C(=O)c1ccccc1C2=O [YM155] + CC(C)C[C@H](NC(=O)[C@H](Cc1ccccc1)NC(=O)c1cnccn1)B(O)O [Bortezomib] (partner 0.002 µM)
Summary of the method: as §1

[4] = compound: COCC[n+]1c2c(n(Cc3cnccn3)c1C)C(=O)c1ccccc1C2=O [YM155] + C[C@]1(O)C[C@@H](c2nc(-c3ccc4ccc(-c5ccccc5)nc4c3)c3c(N)nccn32)C1 [Linsitinib] (partner 1 µM)
Summary of the method: as §1

Cell Line | relative viability ([1]; first compound 0.002 µM) | relative viability ([1]; first compound 0.006325 µM) | relative viability ([1]; first compound 0.02 µM) | relative viability ([1]; first compound 0.06325 µM) | relative viability ([2]; first compound 0.001 µM) | relative viability ([2]; first compound 0.003162 µM) | relative viability ([2]; first compound 0.01 µM) | relative viability ([2]; first compound 0.03162 µM) | relative viability ([2]; first compound 0.1 µM) | relative viability ([3]; first compound 0.002 µM) | relative viability ([3]; first compound 0.006325 µM) | relative viability ([3]; first compound 0.02 µM) | relative viability ([3]; first compound 0.06325 µM) | relative viability ([4]; first compound 0.002 µM) | relative viability ([4]; first compound 0.006325 µM) | relative viability ([4]; first compound 0.02 µM) | relative viability ([4]; first compound 0.06325 µM)
HCC-827 | 1.03 | 1.09 | 1.07 | 1.06 | 0.356 | 0.516 | 0.458 | 0.405 | 0.411 | 1.01 | 1.04 | 1.02 | 0.912 | 0.954 | 1.01 | 0.928 | 0.941
HOP-62 | 0.979 | 1.04 | 1.17 | 1.02 | 0.358 | 0.363 | 0.416 | 0.352 | 0.33 | 0.737 | 0.752 | 0.763 | 0.696 | 0.906 | 1.02 | 1.32 | 0.92
IA-LM | 1.15 | 1.03 | 1.33 | 0.975 |  |  |  |  |  | 0.806 | 0.78 | 0.874 | 0.737 | 0.392 | 0.697 | 0.745 | 0.373
LC-2-ad | 0.923 | 0.967 | 0.884 | 0.666 | 0.373 | 0.436 | 0.451 |  | 0.451 | 0.975 | 1.03 | 1.02 | 0.947 | 0.806 | 0.957 | 0.814 | 0.753
LCLC-97TM1 | 0.924 | 0.97 | 1.07 | 0.97 | 0.183 | 0.218 | 0.172 | 0.248 | 0.207 | 0.313 | 0.74 | 0.621 | 0.185 | 0.2 | 0.183 | 0.161 | 0.212
LCLC-103H | 0.802 | 0.722 | 0.815 | 0.839 | 0.391 | 0.47 | 0.441 | 0.491 | 0.522 | 1.01 | 1.06 | 1.17 | 1.1 | 0.999 | 0.974 | 1.16 | 1.16
LK-2 | 1.02 | 1.32 | 1.29 | 1.22 | 0.133 |  | 0.145 | 0.17 | 0.142 |  |  |  |  | 0.425 | 0.764 | 0.491 | 0.796
LOU-NH91 | 0.92 | 0.98 | 1.02 | 0.937 | 0.472 | 0.693 | 0.462 | 0.649 | 0.668 | 0.704 | 0.521 | 0.487 | 0.555 | 1.05 | 0.879 | 0.97 | 0.978
LU99A | 0.806 | 0.866 | 0.905 | 0.884 | 0.288 | 0.274 | 0.262 | 0.259 | 0.272 | 1.17 | 1.11 | 1.16 | 0.965 | 0.581 | 0.503 | 0.554 | 0.545
LXF-289 | 1 | 1.01 | 1.02 | 0.97 | 0.16 | 0.207 | 0.196 | 0.21 | 0.247 | 0.944 | 0.93 | 0.989 | 1.02 | 0.97 | 0.86 | 0.999 | 0.828
NCI-H358 | 0.653 | 0.699 | 0.736 | 0.37 | 0.0852 | 0.0998 | 0.115 | 0.102 | 0.0995 |  |  |  |  | 0.708 | 0.689 | 0.778 | 0.253
NCI-H522 |  |  |  |  | 0.571 | 0.585 | 0.585 | 0.559 | 0.569 |  |  |  |  |  |  |  | 
NCI-H1299 | 1.12 | 1.07 | 1.16 | 1.04 |  |  |  |  |  | 1.02 | 1.01 | 1 | 1 | 1 | 0.962 | 1 | 0.88
NCI-H1395 | 0.943 | 0.91 | 0.984 | 1.01 | 0.873 | 0.686 | 0.782 | 0.814 | 0.682 |  |  |  |  | 1.11 | 0.889 | 1.09 | 1.14
NCI-H1563 | 0.89 | 0.935 | 1.09 | 1.02 |  |  |  |  |  | 0.974 | 0.926 | 0.907 | 0.989 | 1.26 | 1.38 | 1.24 | 1.28
NCI-H1648 |  |  |  |  |  |  | 0.38 | 0.341 | 0.585 |  |  |  |  |  |  |  | 
NCI-H1650 | 1.07 | 1.11 | 0.932 | 0.57 | 0.42 | 0.366 | 0.369 |  | 0.238 | 0.216 | 0.23 | 0.221 | 0.19 |  |  |  | 
NCI-H1703 | 0.309 | 0.355 | 0.381 | 0.276 |  |  |  |  |  | 0.283 | 0.323 | 0.322 | 0.198 | 0.474 | 1.25 | 0.622 | 0.411
NCI-H1792 |  |  |  |  |  |  |  |  |  | 0.816 | 0.97 | 0.943 | 1 | 0.507 | 0.548 | 0.552 | 0.626
NCI-H1793 | 0.626 | 0.875 | 0.675 | 0.79 | 0.329 | 0.289 | 0.291 | 0.214 | 0.238 |  |  |  |  |  | 0.639 | 0.886 | 0.483
NCI-H1944 | 0.818 | 0.888 | 0.852 | 0.91 | 0.291 | 0.264 | 0.267 | 0.263 | 0.278 |  |  |  |  | 1.14 | 1.15 | 1.19 | 1.32
NCI-H2170 | 1 | 0.983 | 1 | 1.09 | 0.665 | 0.654 | 0.853 | 0.749 | 0.804 |  |  |  |  |  |  |  | 
NCI-H2342 | 1 | 1.14 | 1.14 | 1.03 | 0.625 | 0.582 | 0.575 | 0.498 | 0.457 |  |  |  |  |  |  |  | 
SK-MES-1 | 0.9 | 0.889 | 0.921 | 0.921 | 0.852 | 0.904 | 0.864 |  | 0.77 |  |  |  |  | 1.12 | 1.07 | 1.12 | 0.964
SW 900 | 0.874 | 0.622 | 1.15 | 0.905 | 0.57 | 0.506 |  | 0.344 | 0.39 |  |  |  |  |  |  |  | 
